Data taken from patent publication US20090124645A1, “Novel Pyrimidine-2,4-Diamine Derivatives and their Use as Modulators of Small-Conductance Calcium-Activated Potassium Channels” (NeuroSearch A/S, priority 2005, published 2009).
Where a name gives a salt, the structure may show the parent alone.

SMILES	melting point [°C]
Clc1ccc(CCNc2ccnc(NCCc3ccc(Cl)cc3)n2)cc1 (as salt: HCl) [Example 11, N^2,N^4-Bis[2-(4-chlorophenyl)ethyl]pyrimidine-2,4-diamine]	201 to 204
Clc1ccc(CNc2ccnc(NCc3ccc(Cl)cc3)n2)cc1 (as salt: HCl) [Example 7, N^2,N^4-Bis(4-chlorobenzyl)pyrimidine-2,4-diamine]	213 to 216
Clc1ccc(CNc2ccnc(NCc3ccc(Cl)c(Cl)c3)n2)cc1Cl (as salt: HCl) [Example 4, N^2,N^4-Bis(3,4-dichlorobenzyl)pyrimidine-2,4-diamine]	167 to 170
FC(F)(F)c1cccc(CNc2ccnc(NCc3cccc(C(F)(F)F)c3)n2)c1 (as salt: HCl) [Example 3, N^2,N^4-Bis[3-(trifluoromethyl)benzyl]pyrimidine-2,4-diamine]	172
CC(Nc1ccnc(NC(C)c2ccc(F)cc2)n1)c1ccc(F)cc1 (stereo not drawn) (as salt: HCl) [Example 5, N^2,N^4-Bis[1-(4-fluorophenyl)ethyl]pyrimidine-2,4-diamine]	151 to 154
Fc1ccc(CCNc2ccnc(NCCc3ccc(F)cc3)n2)cc1 (as salt: HCl) [Example 10, N^2,N^4-Bis[2-(4-fluorophenyl)ethyl]pyrimidine-2,4-diamine]	177.4 to 179.4
